Test: method code SF, from DOI: 10.1246/bcsj.55.1489
Settings: pH 7.0

Row | Structure (SMILES) | logD
1 | COc1ccnc(-n2nc(C)cc2OC)n1 | 1.01
2 | COc1cc(C)n(-c2ccncn2)n1 | 2.21
3 | COc1cc(C)nn1-c1ccncn1 | 0.5
4 | COc1cc(-n2c(=O)cc(C)n2C)ncn1 | 0.3
5 | COc1cc(-n2nc(C)cc2OC)nc(OC)n1 | 1.86
6 | COc1cc(-n2nc(C)cc2OC)ncn1 | 1.53

The remaining lines, values ahead:

Row | logD | Structure (SMILES)
7 | 1.82 | COc1cc(C)n(-c2nc(C)cc(C)n2)n1
8 | 1.03 | COc1nc(C)cc(-n2[nH]c(C)cc2=O)n1
9 | 0.7 | COc1cc(-n2c(=O)cc(C)n2C)nc(C)n1
10 | 0.51 | Cc1cc(C)nc(-n2c(C)cc(=O)n2C)n1
11 | 0.38 | COc1cc(-n2c(C)cc(=O)n2C)nc(C)n1
12 | 0.73 | COc1cc(C)nn1-c1nc(C)cc(C)n1
13 | 0.24 | Cc1cc(-n2c(=O)cc(C)n2C)nc(C)n1

From the SangsterLogP compilation
